# Experiments:
# γ-secretase [1] = biological target: T1, γ-secretase (Homo sapiens, UniProt P49768); test: Amyloid protein determination by ELISA in IMR32 cells with introduced human APP695 gene carrying the Sweden mutation; format: cell-based
# T1 construct: endogenous in cells; host or cells: IMR32 cells (transfected only with the substrate APP gene)
# Procedure: APP gene was efficiently introduced from outside into COS cells, which is a cultured cell line of simian kidney's origin, using Lipofectamine Plus reagent (Invitrogen K.K.) according to its protocol. Briefly, 1 μg of APP gene was dissolved in 100 μl of OPTI-MEM, mixed with 6 μl of Plus reagent and left to stand for 15 minutes at room temperature. In parallel, 4 μl of Lipofectamine dissolved in 100 μl of OPTI-MEM medium was prepared. This was then mixed with the APP gene solution, and left to stand for further 15 minutes. Six-well culture plates were provided in advance in each well of which was placed 800 μl of culture that had been prepared by culturing COS cells at 75% to 80% cell density in a DMEM medium supplemented with 10% fetal bovine serum, and then replacing the medium with OPTI-MEM medium. Two hundred pI of the reaction mixture containing the gene were added to each culture well. Twelve hours after introduction of the gene, the medium was changed from the OPTI-MEM medium containing the introduced gene to a 10% fetal bovine serum-supplemented DMEM medium free of the introduced gene. To this culture, the compound obtained in Example 1 was added. After 36 to 48 hours, culture supernatant was collected, transferred to centrifuging tubes, and centrifuged at 10,000 r.p.m. at room temperature for 5 minutes. The supernatant was used as a sample containing amyloid protein. The shorter and the longer amyloid protein components contained in each sample can be separately determined using a commercially available ELISA kit for amyloid protein determination (KHB3441: Signal Select™ Human ⊖ Amyloid1-42 ELISA Kit, or KHB3481: Signal Select™ Human β Amyloid1-40 ELISA Kit, BioSource International, Inc. CA, USA). Those ELISA kits for amyloid determination included 96-well ELISA plates coated with a primary antibody to these two types of amyloid proteins. Following eliminating non-specific antigen-antibody reactions by allowing a usual non-specific blocking reaction, a sample medium containing the amyloid protein to be measured was reacted. Then, after usual washing, one of secondary antibodies was added. The secondary antibodies consisted of two deferent antibodies that can distinguish between the two types of amyloid proteins, the one is the shorter amyloid protein and the other is the longer amyloid antibody, without no cross reactivity. The difference between the two amyloid proteins is the absence or presence of the two amino acid residues (isoleucine and alanine) at their carboxyl terminus. The antibody that detects the former is considered to recognize valine at the carboxyl terminus and the antibody that detects the latter is thought to recognize the alanine.
# The compounds (1′a) and (1′b) obtained above were measured for inhibitory activity by the same method as in Example 3. As the system for evaluation, however, IMR32, a neural system cell line of human origin, was used after introducing to it a human APP695 gene into which the Sweden mutation had been incorporated.
# γ-secretase [2] = test: Amyloid protein determination by ELISA in cells with introduced APP artificial fragment C100 instead of APP695; format: cell-based, simian; settings: Inhibitor 100 μM; for Inhibition rate (%) Aβ40 / Inhibition rate (%) Aβ42(43): 100 µM
# γ-secretase [3] = test: Amyloid protein determination by ELISA in culture supernatant of COS cells with introduced wild-type human APP695 gene; format: cell-based, simian; settings: for Inhibition rate (%) Aβ42(43) / Inhibition rate (%) Total Aβ: 100 µM
# Description: (§1) The human APP695 gene used in this example (whose nucleotide sequence in its coding region is shown as SEQ ID NO:6) was what had been screened from a cDNA library prepared from the dead brain of a normal human by a conventional method, and its entire nucleotide sequence was confirmed by a conventional method. Briefly, about 1 g of frozen cerebral tissue was phenol-treated and the supernatant aqueous solution was collected. After repeating this process, mRNA was precipitated by addition of ethanol. After dissolving in 20 mM tris-HCl, pH 8., 0.1 mM EDTA, cDNA was synthesized with reverse transcriptase using oligo-dT primers and the mRNA as a template. After remaining RNA was digested with RNase, using thus obtained single-stranded cDNA as a template, double-stranded cDNA was synthesized with DNA polymerase. The double-stranded cDNA was then blunt-ended with T4 DNA polymerase. Following introduction of methylation into a EcoR1 restriction site using EcoR1 methylase, an EcoR1 linker adapter was ligated using ligase. After removal of unreacted free adapter by gel filtration, ligation to λgt11 vector was effected using DNA ligase, and thus ligated product was incorporated into λ-phage using a packaging kit. E. coli cells in agar plates were infected with the λ-phage thus obtained, and the solution containing thus proliferated phage was used as cDNA library. For APP cDNA cloning, oligonucleotides that were anticipated based on the amyloid protein were radio-labeled using γ^32P-ATP and DNA kinase to provide the labeled nucleotides as probes. 10^6 pfu (plaque forming units) of phage were allowed to form plaques on agar plates, and brought into contact with a nylon membrane. The phage DNAs that stuck to the membrane were denaturated to single-stranded DNAs by alkali treatment of the nylon membrane, and the membrane then was neutralized, to which, after incubation in a solution containing salmon sperm DNAs, the ^32P radio-labeled nucleotide probes were added and allowed to hybridize for 12 hours. At this stage, where aimed APP gene incorporated to the phage and one of the oligonucleotides were mutually complementary in their sequences, they would form a double-stranded DNA. The nylon membrane was then exposed to X-ray film, and plaques on the agar plates corresponding to spots of exposure were identified with phages carrying APP gene (fragment). By repeating this process, a single phage was finally obtained. The nucleotide sequence of the APP gene incorporated into the phage was determined by publicly known Sanger method.
# (§2) APP gene was efficiently introduced from outside into COS cells, which is a cultured cell line of simian kidney's origin, using Lipofectamine Plus reagent (Invitrogen K.K.) according to its protocol. Briefly, 1 μg of APP gene was dissolved in 100 μl of OPTI-MEM, mixed with 6 μl of Plus reagent and left to stand for 15 minutes at room temperature. In parallel, 4 μl of Lipofectamine dissolved in 100 μl of OPTI-MEM medium was prepared. This was then mixed with the APP gene solution, and left to stand for further 15 minutes. Six-well culture plates were provided in advance in each well of which was placed 800 μl of culture that had been prepared by culturing COS cells at 75% to 80% cell density in a DMEM medium supplemented with 10% fetal bovine serum, and then replacing the medium with OPTI-MEM medium. Two hundred pI of the reaction mixture containing the gene were added to each culture well. Twelve hours after introduction of the gene, the medium was changed from the OPTI-MEM medium containing the introduced gene to a 10% fetal bovine serum-supplemented DMEM medium free of the introduced gene. To this culture, the compound obtained in Example 1 was added. After 36 to 48 hours, culture supernatant was collected, transferred to centrifuging tubes, and centrifuged at 10,000 r.p.m. at room temperature for 5 minutes. The supernatant was used as a sample containing amyloid protein. […]
# [4] = Examination of solubility, visually and by microscopy; format: physicochemical
# Description: The compound synthesized in Example 1 was examined for its solubility, visually as well as by microscopy.
# γ-secretase [5] = test: Amyloid protein determination by ELISA in culture supernatant of COS cells with introduced Sweden-type APP695 gene; format: cell-based, simian; settings: for Inhibition rate (%) Aβ42(43) / Inhibition rate (%) Total Aβ: 100 µM
# Description: as §1, §2
# γ-secretase [6] = test: Amyloid protein determination by ELISA in culture supernatant of COS cells with introduced London-type (Val717Ile) APP695 gene; format: cell-based, simian; settings: for Inhibition rate (%) Total Aβ: 100 µM
# Description: as §1, §2
# [7] = inhibitor 100 μM (Table 2), listed as Compound
# [8] = inhibitor 100 μM (Table 2), listed as inhibitor
# [9] = Inhibitor 100 μM, Sweden-type APP695, COS cells
# [10] = Sweden-type APP695, inhibitor 100 μM (Table 2), listed as Compound
# [11] = Sweden-type APP695, inhibitor 100 μM (Table 2), listed as inhibitor
# [12] = Inhibitor 100 μM, London-type APP695, COS cells
# [13] = London-type APP695, inhibitor 100 μM (Table 2)
compound,measurement,setting,value
t-But-OCO-Thr*-Leu-Val-Met-NH-Bzl [Compound 1′b],Aβ40,γ-secretase [1]; 10 μM,72 pg/mL
same,Inhibition rate (%),γ-secretase [1]; 10 μM,38%
same,Aβ40,γ-secretase [1]; 100 μM,26 pg/mL
same,Inhibition rate (%),γ-secretase [1]; 100 μM,78%
"CSCC[C@H](NC(=O)[C@@H](NC(=O)[C@H](CC(C)C)C[C@@H](O)[C@@H](NC(=O)OC(C)(C)C)[C@@H](C)OC(C)(C)C)C(C)C)C(=O)NCc1ccccc1 [Compound 1′a, t-But-OCO-Thr*-Leu-Val-Met-NH-Bzl]",Aβ40,γ-secretase [1]; 10 μM,31 pg/mL
same,Aβ40,γ-secretase [1]; 100 μM,0 pg/mL
same,inhibition at 10 µM,"γ-secretase [1]; IMR-32, Aβ40, 10 μM, read-out: Inhibition rate (%)",73%
same,inhibition at 100 µM,"γ-secretase [1]; IMR-32, Aβ40, 100 μM, read-out: Inhibition rate (%)",100%
"COC(=O)[C@H](CC(C)C)NC(=O)[C@H](CCSC)NC(=O)[C@@H](C[C@@H](O)[C@H](CC(C)C)NC(=O)OC(C)(C)C)C(C)C [Compound 1, Boc-Leu*-Val-Met-Leu-OMe]",Aβ40,γ-secretase [2],100 pg/mL
same,Aβ42(43),γ-secretase [2],62 pg/mL
same,Inhibition rate (%) Total Aβ,γ-secretase [2],85%
same,Total Aβ,γ-secretase [2],162 pg/mL
same,Inhibition rate (%) Aβ40,γ-secretase [2]; listed as Inhibitor,89%
same,Inhibition rate (%) Aβ42(43),γ-secretase [2]; listed as Inhibitor,51%
same,Inhibition rate (%) Aβ40,γ-secretase [2]; listed as inhibitor,about 90%
same,Inhibition rate (%) Aβ42(43),γ-secretase [2]; listed as inhibitor,about 50%
same,inhibitory activity for Aβ40 production,γ-secretase [3],about 98%
same,Aβ40,"γ-secretase [3]; Inhibitor 100 μM, COS cells",218 pg/mL
same,Aβ42(43),"γ-secretase [3]; Inhibitor 100 μM, COS cells",415 pg/mL
same,Ratio of Aβ42(43)/Aβ40,"γ-secretase [3]; Inhibitor 100 μM, COS cells",1.90
same,Inhibition rate (%) Aβ42,γ-secretase [3]; inhibitor 100 μM (Table 2),98%
same,Inhibition rate (%) Aβ42(43),γ-secretase [3]; [7],71%
same,Inhibition rate (%) Total Aβ,γ-secretase [3]; [7],98%
same,Inhibition rate (%) Aβ42(43),γ-secretase [3]; [8],about 71%
same,Inhibition rate (%) Total Aβ,γ-secretase [3]; [8],about 98%
same,solubility,"[4]; DMEM medium containing 10% fetal bovine serum, plasma or biological fluid, concentration 10 ng/ml",> 0.01 µg/mL
same,solubility,"[4]; DMEM medium containing 10% fetal bovine serum, plasma or biological fluid, concentration 1 μg/ml",0.01 to 1 µg/mL
same,solubility,"[4]; DMEM medium containing 10% fetal bovine serum, plasma or biological fluid, concentration 100 μg/ml",< 100 µg/mL
same,solubility,"[4]; DMSO, organic solvent or mixture, concentration 10 ng/ml",> 0.01 µg/mL
same,solubility,"[4]; DMSO, organic solvent or mixture, concentration 1 μg/ml",> 1 µg/mL
same,solubility,"[4]; DMSO, organic solvent or mixture, concentration 100 μg/ml",> 100 µg/mL
same,solubility,"[4]; phosphate buffer, pH 7, aqueous buffer, Phosphate buffer (pH 7.0), concentration 10 ng/ml",> 0.01 µg/mL
same,solubility,"[4]; phosphate buffer, pH 7, aqueous buffer, Phosphate buffer (pH 7.0), concentration 1 μg/ml",0.01 to 1 µg/mL
same,solubility,"[4]; phosphate buffer, pH 7, aqueous buffer, Phosphate buffer (pH 7.0), concentration 100 μg/ml",< 100 µg/mL
same,solubility,"[4]; physiological saline, saline or isotonic, concentration 10 ng/ml",> 0.01 µg/mL
same,solubility,"[4]; physiological saline, saline or isotonic, concentration 1 μg/ml",0.01 to 1 µg/mL
same,solubility,"[4]; physiological saline, saline or isotonic, concentration 100 μg/ml",< 100 µg/mL
same,Aβ40,γ-secretase [5]; [9],1726 pg/mL
same,Aβ42(43),γ-secretase [5]; [9],1311 pg/mL
same,Ratio of Aβ42(43)/Aβ40,γ-secretase [5]; [9],0.76
same,inhibitory activity for Aβ40,γ-secretase [5]; Sweden double mutation,about 90%
same,Inhibition rate (%) Aβ40,"γ-secretase [5]; Sweden-type APP695, inhibitor 100 μM (Table 2)",90%
same,Inhibition rate (%) Aβ42(43),γ-secretase [5]; [10],48%
same,Inhibition rate (%) Total Aβ,γ-secretase [5]; [10],84%
same,Inhibition rate (%) Aβ42(43),γ-secretase [5]; [11],about 48%
same,Inhibition rate (%) Total Aβ,γ-secretase [5]; [11],more than 80%
same,Aβ40,γ-secretase [6]; [12],151 pg/mL
same,Aβ42(43),γ-secretase [6]; [12],855 pg/mL
same,Ratio of Aβ42(43)/Aβ40,γ-secretase [6]; [12],5.66
same,inhibitory activity on amyloid protein production,"γ-secretase [6]; London mutation (Val717Ile), compared with wild-type sequence",nearly the same level of inhibitory activity as that noted on the wild-type sequence
same,Inhibition rate (%) Aβ42,γ-secretase [6]; [13],98%
same,Inhibition rate (%) Aβ42(43),γ-secretase [6]; [13],70%
same,Inhibition rate (%) Total Aβ,"γ-secretase [6]; London-type APP695, inhibitor 100 μM (Table 2), listed as Compound",89%
same,Inhibition rate (%) Total Aβ,"γ-secretase [6]; London-type APP695, inhibitor 100 μM (Table 2), listed as inhibitor",more than 80%

# From patent US7585938B2, “Gamma-secretase inhibitors” (priority 2002, dated 2009)
